Data published in patent US20200405794A1, “PHARMACEUTICAL COMPOSITION FOR PREVENTING OR TREATING CANCER […] AND H[…] EFFECTIVE COMPONENTS” (priority 2018, published 2020).

Tests used:
[1] = test system: 4T1 cancer cell line-implanted mice; assay: 4T1 I: tumor size in mouse breast cancer cell-implanted mice; format: in vivo, Balb/c mice; conditions: 10 days; OTS-412 1×10^7 pfu intratumorally once; hydroxyurea 30 mg/kg intraperitoneally once a day; n=4
[2] = test system: 4T1 cancer cell line-implanted mice; assay: 4T1 III: tumor size and survival with high-dose hydroxyurea; format: in vivo, Balb/c mice; conditions: 17 days; OTS-412 1×10^7 pfu intratumorally once; high-dose hydroxyurea 90 mg/kg intraperitoneally once a day
[3] = test system: NCI-H460 lung cancer cells-implanted mice; assay: Tumor size in human lung cancer cell (NCI-H460)-implanted mice; format: in vivo, Balb/c nu/nu mice; conditions: day 15; OTS-412 1×10^5 pfu twice (5 days apart); hydroxyurea 20 mg/kg once daily
[4] = test system: HCT-116 cancer cell line-implanted mice; assay: Tumor size in human colorectal cancer cell (HCT-116)-implanted mice; format: in vivo, Balb/c nu/nu mice; conditions: day 28; hydroxyurea only, once daily; n=5
[5] = day 21; OTS-412 1×10^7 pfu twice or hydroxyurea 30 mg/kg, each alone; n=10

For hydroxyurea, the tumor size increase [1] was roughly 5 times, the tumor size increase [2] was roughly 3.5 times and the tumor size increase [3] was 9 times. For the same substance, the tumor size increase [4] was 11 times and the body weight loss [5] was “around 10%”.
